This is an account of results in patent EP2364976B1, “S1P receptor modulating compounds and use thereof” (EPIX Pharmaceuticals, Inc., priority 2007, dated 2007).

By EC50 is commonly meant the concentration giving half of the maximal effect.

“And” between values parts separate entries of the source, which are not always exact repeats. Equal values may be shown once. Where a name gives a salt, the structure may show the parent alone.

T1 sequence (P21453 whole entry): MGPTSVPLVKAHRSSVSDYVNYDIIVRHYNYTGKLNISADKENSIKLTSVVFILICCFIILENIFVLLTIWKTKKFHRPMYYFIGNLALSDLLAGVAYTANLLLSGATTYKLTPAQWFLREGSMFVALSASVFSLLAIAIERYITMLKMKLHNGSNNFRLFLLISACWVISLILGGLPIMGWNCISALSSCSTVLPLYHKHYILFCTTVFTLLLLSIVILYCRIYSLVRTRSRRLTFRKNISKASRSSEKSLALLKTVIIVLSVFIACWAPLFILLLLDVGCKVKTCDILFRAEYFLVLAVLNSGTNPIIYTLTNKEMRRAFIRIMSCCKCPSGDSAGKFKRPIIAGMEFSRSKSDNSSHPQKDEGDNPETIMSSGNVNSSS

This assay concerns the target T1, hS1P1 (Homo sapiens, UniProt P21453).
T1 construct: expressed in transfected cells
Briefly: hS1P1 EC50 (S1P receptor Ca2+ flux protocol, FLIPR, CHO K1 Gqi5 cells). The format is cell-based. As to conditions: several values per compound = repeat determinations as printed. The method, then:
S1P receptor activity may also be measured by an SIP receptor (e.g., hS1P1, hS1P3, rS1P1, rS1P3 and parental cell) Ca^2+ Flux protocol as described below: • 1. Material • a. FLIPR buffer: 1x HBSS; 10mM HEPES • b. Cell growth media: • i. human and rat S1P1 and S1P3: F12-Ham's media; 10% FBS (qualified); 1x Pen/Strep/Glu; 300ug/mL Hygromycin; 400ug/mL Geneticin ii. Parental cell: human and rat S1P and S1P3: F12-Ham's media; 10% FBS (qualified); 1x Pen/Strep/Glu; 300ug/mL Hygromycin; • c. Cell seeding media; F12-Ham's media; 10% FBS (Charcoal/dextran stripped); 1x Pen/Strep/Glu; • d. Cell dissociation buffer: Versene from Invitrogen • e. Agonist (SIP) dissolving buffer: 0.4% (w/v) fatty-acid free BSA (Sigma # A8806) in FLIPR buffer • f. FLIPR dye: BD PBX Calcium assay kit; Cat#641077 is composed of Calcium indicator (Cat#850000) and 100x PBX signal enhancer (cat#850001). The 100x PBX signal enhancer is diluted into FLIPR buffer 1:100 and the calcium indicator is then added at 1:1000 ratio. • g. Cell plates (96-well): Greiner Cat#655090 • h. Compound plates (96-well): Costar #3365 • i. S1P stock solution preparation: S1P is purchased from CalBioChem (Catalog # 970471; 1mg vial; custom prep using methanol, & nitrogen gas drying inside glass vial; Storage @ -20°C). Dissolve 1 vial of SIP into 26.4ml of agonist dissolving buffer in a 50ml centrifuge tube; Remove label from bottle of SIP, open and drop entire bottle into tube. Sonicate at 37° for ½ hour. Clear solution of 100µM will result. This stock solution is aliquoted and stored at -80C • 2. Cell line maintenance • a. V5 tags were added at the N-terminus of hS1P1, hS1P3, rS1P1 and rS1P3. All four genes were transfected into CHO K1 cells which stably express Gqi5. • b. hS1P1 and hS1P3 were established as stable clones and rS1P1 and rS1P3 were sorted by anti V5 tag and established as stable pools after sorting. • c. Parental cell line CHO/K1 Gqi5 is used as the control. • d. All the cells are maintained in cell growth media and splitted twice a week using Versene. • e. All the cell lines are used under passage 30. • 3. Assay protocol • a. Cell seeding: Cells are lifted from the flask by Versene and seeded in cell plates at 50K/well in cell seeding media. Cells are grown overnight at 37 degree. • b. Cell loading: Cell seeding media is discarded. Cells are loaded with 50ul of FLIPR dye at RT for 90 min. Signal is stable for up to 5 h after dye loading. • c. Agonist (S1P) preparation: Frozen stock of S1P is thawed out and sonicated at 37c for 30 minutes every time before use. The stock is then diluted into FLIPR buffer at proper concentration. • d. Compound preparation: Compounds are dissolved in DMSO. A 3x, 10 point dilution of the compounds are carried out in DMSO. Then the compounds are diluted into assay buffer133x so that the DMSO concentration is 0.75%. • e. Activity measurement: The fluorescence signal change of the cells upon compound addition is monitored in FLIPRtetra. 25ul of compound is transferred into the cell plates (50ul of FLIPR dye; DMSO concentration: 0.25%). Signal is recorded for 90sec after compound addition. Then 50ul of 500nM SIP is added in the cell plate, and signal is recorded for 90 seconds upon addition. • 4. Data analysis • a. Peak value is calculated for each compound/S1P addition • b. The peak value of S1P at 200nM is used as high control (100%), and the peak value of buffer only is used as low control (0%). • c. Data is normalized against high and low controls using the following equation: POC_S = 100*(RAW-LO)/(HI-LO) [formula] • d. Peak value is plotted against the concentration of compound. • e. Curve is fitted using the 4 parameter fit: Y = (A+(B/(1+(((x/C))^(∧)D)))) [formula] where: Y is POC_S (or POC) • X is compound concentration • A is the minimum (EC50min or IC50min) • B is the maxmum (EC50max or IC50max) • C is the inflection point (EC50IP or IC50IP) • D is the hill slope (EC50 slope or IC50 slope).
A general note: A change in cytosolic calcium serves as a functional read-out for many receptors and channels.
As for `O=C(O)C1CN(Cc2ccc(-c3cc4cc(C(=NO)c5ccccc5)ccc4o3)c(F)c2)C1` (mixture of isomers) [Reference Compound 103, (E/Z)-1-((3-Fluoro-4-(5-((hydroxyimino)(phenyl)methyl)benzofuran-2-yl)phenyl)methyl)azetidine-3-carboxylic acid], the half-maximal effective concentration (EC50) was determined as 16 nM. In turn, `O=C(O)C1CCN(Cc2ccc(-c3cc4cc(Cc5ccccc5)ccc4o3)c(F)c2)C1` (racemic) [Reference Compound 41] registered an EC50 of 315 nM.

As for `O=C(O)C1CN(Cc2ccc(-c3cc4cc(Cc5ccccc5)cnc4o3)c(F)c2)C1` [Inventive Compound 98, 1-((3-Fluoro-4-(5-(phenylmethyl)furo[2,3-b]pyridin-2-yl)phenyl)methyl)-3-azetidinecarboxylic acid], a half-maximal effect (EC50) was put at 27 nM. Regarding `O=C(O)C1CN(Cc2ccc(-c3nc4cc(Cc5ccccc5)ccc4s3)c(F)c2)C1` [Inventive Compound 114, 1-((4-(5-Benzylbenzo[d]thiazol-2-yl)-3-fluorophenyl)methyl)azetidine-3-carboxylic acid], the EC50 was 29 nM. `O=C(O)C1CN(Cc2ccc(-c3nc4cc(Sc5ccccc5)ccc4o3)c(F)c2)C1` [Inventive Compound 117, 1-((3-Fluoro-4-(5-(phenylthio)benzo[d]oxazol-2-yl)phenyl)methyl)azetidine-3-carboxylic acid]: a half-maximal response (EC50) required 3 nM. `O=C(O)C1CN(Cc2ccc(-c3cn4ccc(Cc5ccccc5)cc4n3)c(F)c2)C1` [Inventive Compound 119, 1-(4-(7-Benzyl-1H-imidazo[1,2-a]pyridin-2-yl)-3-fluorobenzyl)azetidine-3-carboxylic acid, trifluoroacetic acid salt] registered a concentration giving a half-maximal response (EC50) of 54 nM.

In turn, `O=C(O)C1CN(Cc2ccc(-c3cc4cc(-c5ccccc5)ccc4o3)cc2)C1` [Reference Compound 1, 1-(4-(5-Phenylbenzofuran-2-yl)benzyl)azetidine-3-carboxylic acid] yielded an EC50 of 1200 nM. In the case of `CCCCc1ccc2oc(-c3ccc(CN4CC(C(=O)O)C4)cc3)cc2c1` [Reference Compound 2, 1-((4-(5-Butylbenzofuran-2-yl)phenyl)methyl)azetidine-3-carboxylic acid], the concentration giving a half-maximal response (EC50) was 200 nM and 510 nM and 867 nM. The value for `CCCCOc1ccc2oc(-c3ccc(CN4CC(C(=O)O)C4)cc3)cc2c1` [Reference Compound 3] was 520 nM; that for `O=C(O)C1CN(Cc2ccc(-c3cc4cc(Cc5ccccc5)ccc4o3)cc2)C1` [Reference Compound 4, 1-((4-(5-Benzylbenzofuran-2-yl)phenyl)methyl)azetidine-3-carboxylic acid] was 400 nM and 460 nM and 420 nM and 107 nM; that for `O=C(O)C1CN(Cc2ccc(-c3cc4cc(C5CCCCC5)ccc4o3)cc2)C1` [Reference Compound 6, 1-(4-(5-cyclohexylbenzofuran-2-yl)benzyl)azetidine-3-carboxylic acid] was 970 nM and 400 nM and 440 nM and 421 nM. For the compound `O=C(O)C1CCN(Cc2ccc(-c3cc4cc(C5CCCCC5)ccc4o3)cc2)CC1` [Reference Compound 7, 1-(4-(5-cyclohexylbenzofuran-2-yl)benzyl)piperidine-4-carboxylic acid], the response was half-maximal at 1600 nM (EC50). In turn, `CCCCc1ccc2oc(-c3ccc(CN4CCC(C(=O)O)CC4)cc3)cc2c1` [Reference Compound 8, 1-((4-(5-Butylbenzofuran-2yl)phenyl)methyl)pineridine-4-carbocylic acid] registered an EC50 of 3100 nM.

For the compound `O=C(O)C1CCN(Cc2ccc(-c3cc4cc(Cc5ccccc5)ccc4o3)cc2)CC1` [Reference Compound 9, 1-(4-(5-Benzylbenzofuran-2-yl)phenyl)methyl piperldine4-carboxylic acid], a half-maximal response (EC50) required 4800 nM.

Regarding `CC(C)Cc1ccc2oc(-c3ccc(CN4CC(C(=O)O)C4)cc3)cc2c1` [Reference Compound 10, 1-((4-(5-isobutylbenzofuran-2-yl)phenyl)methyl)azetidine-3-carboxylic acid], the concentration for a half-maximal effect (EC50) is 270 nM and 490 nM and 383 nM.

Compound `O=C(O)C1CN(Cc2ccc(-c3cc4cc(CCc5ccccc5)ccc4o3)cc2)C1` [Reference Compound 11, 1-((4-(5-phenethylbenzofaran-2-yl)phenyl)methyl)azetidine-3-carboxylic acid] had an EC50 of 580 nM. Turning to `O=C(O)C1CN(Cc2ccc(-c3cc4cc(-c5cccnc5)ccc4o3)cc2)C1` [Reference Compound 12, 1-(4-(5-(pyridin-3-yl)benzofuran-2-yl)benzyl)azetidine-3-carboxylic acid], the EC50 is 3600 nM. With `CC(C)Cc1ccc2oc(-c3ccc(CN4CCC(C(=O)O)CC4)cc3)cc2c1` [Reference Compound 13, 1-(4-(5-isobutylbenzofuran-2yl)benzyl)piperidine-4-carboxylic acid] the figure was 1700 nM; with `O=C(O)C1CN(Cc2ccc(-c3cc4cc(Cc5ccccc5)ccc4o3)cc2F)C1` [Reference Compound 14, 1-((4-(5-Benzylbenzofuran-2-yl)2-fluorophenyl)methyl)azetidine-3-carboxylic acid], 620 nM and 334 nM; with `O=C(O)C1CN(Cc2ccc(-c3cc4cc(Cc5ccccc5)ccc4o3)c(F)c2)C1` [Reference Compound 15, 1-((4-(5-Benzylbenzofuran-2-yl)-3-fluorophenyl)methyl)azetidine-3-carboxylic acid], 160 nM and 38 nM. Compound `CCCCOc1ccc2oc(-c3ccc(CN4CCC(C(=O)O)CC4)cc3)cc2c1` [Reference Compound 16] came in with an EC50 of 17000 nM. With `O=C(O)C1CN(Cc2ccc(-c3cc4cc(C5CCCCC5)ccc4o3)nc2)C1` [Reference Compound 17, 1-((6-(5-cyclohexylbenzofuran-2-yl)pyridin-3-yl)methyl)azetidine-3-carboxylic acid] the figure was 720 nM and 302 nM; with `Cc1cccc(-c2ccc3oc(-c4ccc(CN5CC(C(=O)O)C5)cc4)cc3c2)n1` [Reference Compound 18, 1-(4-(5-(6-methylpyridin-2-yl)benzofuran-2-yl)benzyl)azetidine-3-carboxylic acid], 2900 nM; with `O=C(O)C1CN(Cc2ccc(-c3cc4cc(Oc5ccccc5)ccc4o3)cc2)C1` [Reference Compound 19, 1-(4-(5-phenoxybenzofuran-2-yl)benzyl)azetidine-3-carboxylic acid], 510 nM and 92 nM.

Compound `CC(C)CCc1ccc2oc(-c3ccc(CN4CC(C(=O)O)C4)cc3)cc2c1` [Reference Compound 20, 1-((4-(5-Isopentylbenzofuran-2-yl)phenyl)methyl)azetidine-3-carboxylic acid] gave an EC50 of 630 nM. This counts as sub-micromolar. As for `CCCCOc1ccc2cc(-c3ccc(CN4CC(C(=O)O)C4)cc3)oc2c1` [Reference Compound 21, 1-((4-(6-Butoxybenzofuran-2-yl)phenyl)methyl)azetidine-3-carboxylic acid], the response was half-maximal at 2000 nM (EC50). With `CCCCOc1ccc2oc(-c3ccc(CN4CC(C(=O)O)C4)cc3OC)cc2c1` [Reference Compound 24] the figure was 420 nM and 700 nM. With `CCCCOc1ccc2oc(-c3ccc(CN4CC(C(=O)O)C4)s3)cc2c1` [Reference Compound 25, 1-((5-(5-butoxybenzofuran-2-yl)thiophen-2-yl)methyl)azetidine-3-carboxylic acid] the figure was 1600 nM.
